Measured values: paper PMC8881077 (Journal of Enzyme Inhibition and Medicinal Chemistry, 2022)
Where two headings read alike, the source gives them in different places.

Key:
[1] = for ORAC: Trolox as standard
Description: The skeleton compounds naringenin and apigenin were also evaluated for comparison purposes, and vitamin E analogue Trolox was used as a standard.
The antioxidant potency of target compounds was tested using an oxygen radical absorbance capacity fluorescein (ORAC-FL) assay.

ratBuChE = target: T1, ratBuChE (Rattus norvegicus, UniProt Q9JKC1); experiment: ratBuChE inhibition, modified Ellman's method; format: biochemical
T1 construct: BuChE from rat serum or human serum (Sigma Co.); from tissue; host or cells: rat serum
Description: (§1) The AChE and BuChE inhibitory activities of the synthesised compounds were evaluated using the Ellman assay with slight modification. AChE from 5% rat cortex homogenate or human erythrocytes (Sigma Co.). BuChE from rat serum or human serum (Sigma Co.).

ratAChE = target: T2, ratAChE (Rattus norvegicus, UniProt P37136); experiment: biochemical; conditions: for SI: Selectivity Index = IC50 (BuChE)/IC50 (AChE), rat enzymes; for IC50: from 5% rat cortex homogenate
T2 construct: AChE from 5% rat cortex homogenate or human erythrocytes (Sigma Co.); from tissue; host or cells: 5% rat cortex homogenate
T2 sequence (P37136 32-614): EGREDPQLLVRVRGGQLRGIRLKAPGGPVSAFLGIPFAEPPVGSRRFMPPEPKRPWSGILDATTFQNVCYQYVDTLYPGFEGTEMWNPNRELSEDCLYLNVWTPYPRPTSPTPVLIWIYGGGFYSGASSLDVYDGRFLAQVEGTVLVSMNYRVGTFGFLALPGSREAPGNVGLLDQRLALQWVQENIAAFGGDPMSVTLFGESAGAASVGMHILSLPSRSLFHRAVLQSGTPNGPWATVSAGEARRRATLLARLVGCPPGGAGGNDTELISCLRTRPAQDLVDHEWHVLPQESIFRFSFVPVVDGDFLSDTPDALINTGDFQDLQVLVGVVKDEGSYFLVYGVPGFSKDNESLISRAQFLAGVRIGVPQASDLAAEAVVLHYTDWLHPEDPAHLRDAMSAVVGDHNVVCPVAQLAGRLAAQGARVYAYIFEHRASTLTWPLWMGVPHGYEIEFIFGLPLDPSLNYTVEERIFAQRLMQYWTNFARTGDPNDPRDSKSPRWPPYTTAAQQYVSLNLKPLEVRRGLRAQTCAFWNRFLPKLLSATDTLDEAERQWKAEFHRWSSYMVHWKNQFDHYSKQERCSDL
Description: as §1

huBuChE = target: T3, huBuChE (Homo sapiens, UniProt P06276); experiment: biochemical; format: biochemical; conditions: from human serum; read-out: IC50 ± SD huBuChE
T3 construct: BuChE from rat serum or human serum (Sigma Co.); purchased Sigma Co; host or cells: human serum
T3 sequence (P06276 29-602): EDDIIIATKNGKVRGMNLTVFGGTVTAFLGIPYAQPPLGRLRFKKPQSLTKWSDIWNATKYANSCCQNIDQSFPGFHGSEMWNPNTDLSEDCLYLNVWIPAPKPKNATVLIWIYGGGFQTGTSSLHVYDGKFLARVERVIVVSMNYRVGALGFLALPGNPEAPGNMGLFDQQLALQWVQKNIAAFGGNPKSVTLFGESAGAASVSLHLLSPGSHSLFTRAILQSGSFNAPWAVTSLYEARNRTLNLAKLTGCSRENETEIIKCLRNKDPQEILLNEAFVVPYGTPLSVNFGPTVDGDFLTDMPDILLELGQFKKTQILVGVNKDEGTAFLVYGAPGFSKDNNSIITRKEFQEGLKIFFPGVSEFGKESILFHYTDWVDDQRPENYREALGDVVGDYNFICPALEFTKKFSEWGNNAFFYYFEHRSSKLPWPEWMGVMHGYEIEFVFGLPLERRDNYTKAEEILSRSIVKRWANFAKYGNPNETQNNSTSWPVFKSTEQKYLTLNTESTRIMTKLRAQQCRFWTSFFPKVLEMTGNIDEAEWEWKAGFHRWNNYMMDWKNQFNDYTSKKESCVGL
Description: as §1

huAChE = huAChE (Homo sapiens, UniProt P22303); experiment: biochemical; format: biochemical; set-up: AChE from 5% rat cortex homogenate or human erythrocytes (Sigma Co.); purchased Sigma Co; host or cells: human erythrocytes; conditions: for SI: Selectivity Index = IC50 (BuChE)/IC50 (AChE), human enzymes; for IC50: from human erythrocytes, read-out: IC50 ± SD huAChE
Chain of huAChE (P22303 32-617 isoform P22303-2 limits assumed): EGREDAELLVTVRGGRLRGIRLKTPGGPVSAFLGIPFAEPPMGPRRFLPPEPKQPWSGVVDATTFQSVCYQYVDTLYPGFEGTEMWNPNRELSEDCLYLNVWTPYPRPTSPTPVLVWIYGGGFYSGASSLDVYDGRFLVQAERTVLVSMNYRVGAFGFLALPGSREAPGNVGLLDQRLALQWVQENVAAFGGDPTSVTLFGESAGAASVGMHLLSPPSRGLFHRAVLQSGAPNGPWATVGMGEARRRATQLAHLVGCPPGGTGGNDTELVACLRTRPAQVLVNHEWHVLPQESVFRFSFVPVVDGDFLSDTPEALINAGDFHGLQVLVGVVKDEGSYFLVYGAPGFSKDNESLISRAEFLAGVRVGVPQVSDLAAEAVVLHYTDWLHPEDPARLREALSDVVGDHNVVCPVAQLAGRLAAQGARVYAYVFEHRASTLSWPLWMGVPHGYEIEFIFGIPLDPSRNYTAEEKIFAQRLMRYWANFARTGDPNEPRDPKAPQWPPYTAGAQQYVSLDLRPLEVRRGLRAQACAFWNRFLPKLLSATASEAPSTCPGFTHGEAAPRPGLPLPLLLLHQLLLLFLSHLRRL
Description: as §1

Aβ1–42 [2] = target: T4, Aβ1–42 (Homo sapiens, UniProt P05067); experiment: Cu^2+-induced Aβ1–42 aggregation, ThT fluorescence; format: biochemical; conditions: tested compounds and Aβ1–42 25 μM
T4 sequence (P05067 672-713): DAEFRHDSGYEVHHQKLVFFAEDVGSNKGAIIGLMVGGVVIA
Description: Curcumin was also tested as a referenced compound.
(§2) The Thioflavin T-based flurometric assay was employed to test the inhibition potency on self-induced/Cu^2+-induced Aβ1-42 aggregation.

Aβ1–42 [3] = target: T4, Aβ1–42; experiment: Self-induced Aβ1–42 aggregation, Thioflavin T fluorescence; format: biochemical; conditions: tested compounds and Aβ1–42 25 μM
Excerpt: as §2

in vitro = conditions: PAMPA
[4] = system: scopolamine-induced mice memory impairment; experiment: Step-down passive avoidance task; conditions: 5 mg/kg, scopolamine 3 mg/kg
Description: Sixty mice were randomly divided into six groups. […] After 30 min, memory impairment was induced by administering scopolamine (3 mg/kg).

[5] = cited from earlier work

T1 sequence (Q9JKC1 24-597): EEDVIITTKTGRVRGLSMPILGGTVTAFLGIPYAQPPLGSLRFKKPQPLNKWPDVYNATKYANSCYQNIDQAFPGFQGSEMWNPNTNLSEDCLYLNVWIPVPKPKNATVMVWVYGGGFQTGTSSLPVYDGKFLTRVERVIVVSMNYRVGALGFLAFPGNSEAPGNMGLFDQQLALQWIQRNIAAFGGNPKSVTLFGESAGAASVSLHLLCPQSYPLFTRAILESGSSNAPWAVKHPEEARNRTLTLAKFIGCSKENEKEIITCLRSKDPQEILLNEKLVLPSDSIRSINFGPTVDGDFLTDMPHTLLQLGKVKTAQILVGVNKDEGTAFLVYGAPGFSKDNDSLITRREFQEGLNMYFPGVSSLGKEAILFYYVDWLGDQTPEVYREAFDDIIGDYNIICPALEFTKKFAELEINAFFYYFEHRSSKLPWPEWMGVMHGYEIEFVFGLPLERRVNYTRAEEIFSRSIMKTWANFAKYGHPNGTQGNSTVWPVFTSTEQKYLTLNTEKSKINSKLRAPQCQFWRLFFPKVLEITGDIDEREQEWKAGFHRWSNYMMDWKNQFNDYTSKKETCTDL

SMILES	ORAC [1]	IC50 (ratBuChE) [nM]	SI (ratAChE)	IC50 (ratAChE; read-out: IC50 ± SD ratAChE) [nM]	IC50 (huBuChE) [nM]	SI (huAChE)	IC50 (huAChE) [nM]	further results
CCN(CCCCCOc1ccc(-c2cc(=O)c3c(O)cc(OCCCCCN(CC)Cc4ccccc4)cc3o2)cc1)Cc1ccccc1 [Compound 10k, 7-((5-(benzyl(ethyl)amino)pentyl)oxy)-2–(4-((5-(benzyl(ethyl)amino)pentyl)oxy)phenyl)-5-hydroxy-4H-chromen-4-one]	1.1 ± 0.02 μM of Trolox equivalent/μM of tested compound	13300 ± 270	16.4	810 ± 50	4500 ± 120	34.6	130 ± 10	
COc1cc(/C=C/C(=O)CC(=O)/C=C/c2ccc(O)c(OC)c2)ccc1O [curcumin, reference compound]								inhibition at 25 µM (Aβ1–42 [2]): 50.6 ± 0.33%; inhibition at 25 µM (Aβ1–42 [3]): 45.9 ± 0.67%
CCn1cc(C(=O)O)c(=O)c2cc(F)c(N3CCNCC3)cc21 [Norfloxacin, reference compound]								Papp at 100 μg/mL (in vitro): 0.13 ± 0.01 ×10⁻⁶ cm/s
COc1cc2c(cc1OC)C(=O)C(CC1CCN(Cc3ccccc3)CC1)C2 (stereo not drawn) [donepezil, reference compound]								step-down latency [4]: 219.4 s
CCN(CCCCCOc1ccc(-c2cc(=O)c3c(O)cc(OCCCCCN(CC)Cc4ccccc4OC)cc3o2)cc1)Cc1ccccc1OC [Compound 10l, 7-((5-(ethyl(2-methoxybenzyl)amino)pentyl)oxy)-2–(4-((5-(ethyl(2-methoxybenzyl)amino)pentyl)oxy)phenyl)-5-hydroxy-4H-chromen-4-one]	1.3 ± 0.03 μM of Trolox equivalent/μM of tested compound	14400 ± 320	23.2	620 ± 50	2200 ± 180	24.4	90 ± 2	
CCN(CCCCOc1ccc(-c2cc(=O)c3c(O)cc(OCCCCN(CC)Cc4ccccc4)cc3o2)cc1)Cc1ccccc1 [Compound 10h, 7–(4-(benzyl(ethyl)amino)butoxy)-2–(4-(4-(benzyl(ethyl)amino)butoxy)phenyl)-5-hydroxy-4H-chromen-4-one]	1.1 ± 0.03 μM of Trolox equivalent/μM of tested compound	12900 ± 510	14.0	920 ± 60	3700 ± 60	23.1	160 ± 10	
O=C1CC(c2ccc(O)cc2)Oc2cc(O)cc(O)c21 (stereo not drawn) [naringenin, 5,7-dihydroxy-2–(4-hydroxyphenyl)-2,3-dihydrochromen-4-one, reference compound]	5.2 ± 0.29 μM of Trolox equivalent/μM of tested compound	> 50000						oral bioavailability [5]: 15%; ORAC values [1]: 5.2 eq; IC50 (ratAChE; IC50 ± SD ratAChE): > 50000 nM
